Molecules are shown by their SMILES. ≈ marks a conversion by molar mass, not a printed value. Structures can show the parent of a compound that is named as a salt. A value given as a limit tells only on which side of the number the result lay.

The nature of one data set: Solubility of saturated solutions in D.I. water, quantified by LC-MS. Format: physicochemical. The note with it: thermodynamic from solid, saturated solution in D.I. water, shaken 3 hours at room temperature, average of four replicates. The method, then:
Saturated solutions of compound were freshly prepared by adding 1 mL D.I. water into 0.8 mg compound powder. After shaking at room temperature for 3 hours, the samples were centrifuged under 14000 rpm for 15 minutes twice. The supernatants were carefully taken out and quantified by LC-MS. Solubility: 1.2±0.2 μg/mL (average of four replicates).
The term solubility denotes the concentration that dissolves in the medium under given conditions. `Cc1cccc(F)c1C(=O)N1CCC[C@H](C(=O)Nc2ccc(CO)c(C(F)(F)F)c2)[C@@H]1c1ccc(NC2CCCC2)cc1` came in with a solubility at 3 h of 1.2 ± 0.2 µg/mL (≈ 0.00201 mM).

A short description of another data set: Solubility in Milli-Q water, examined with naked eye. Format: physicochemical. The note with it: thermodynamic from solid; arbitrary amount in 1 mL Milli-Q water, room temperature, clear solution by naked eye; not the maximum solubility; read-out: Solubility in H2O. From the text: Experiments with no visible particles by naked eye were considered as clear solutions. It is important to note that the reported solubility information is not the maximum solubility of the compounds in water.
Consider `Cc1ccc(NC(=O)[C@H]2CCCN(C(=O)c3c(C)cccc3F)[C@H]2c2ccc(N(C(=O)OCOP(=O)(O)O)C3CCCC3)cc2)cc1C(F)(F)F` [Example 9, phosphonooxymethyl N-cyclopentyl-N-[4-[(2R,3S)-1-(2-fluoro-6-methyl-benzoyl)-3-[[4-methyl-3-(trifluoromethyl)phenyl]carbamoyl]-2-piperidyl]phenyl]carbamate], for which the solubility is greater than 10000 µg/mL.

With `Cc1ccc(NC(=O)[C@H]2CCCN(C(=O)c3c(C)cccc3F)[C@H]2c2ccc(N(C(=O)CNC(=O)CN)C3CCCC3)cc2)cc1C(F)(F)F` [Example 5, (2R,3S)-2-[4-[[2-[(2-aminoacetyl)amino]acetyl]-cyclopentyl-amino]phenyl]-1-(2-fluoro-6-methyl-benzoyl)-N-[4-methyl-3-(trifluoromethyl)phenyl]piperidine-3-carboxamide], the solubility amounted to 10000 µg/mL (≈ 14.4 mM).

`Cc1ccc(NC(=O)[C@H]2CCCN(C(=O)c3c(C)cccc3F)[C@H]2c2ccc(N(C(=O)CN)C3CCCC3)cc2)cc1C(F)(F)F` [Example 2, (2R,3S)-2-[4-[(2-aminoacetyl)-cyclopentyl-amino]phenyl]-1-(2-fluoro-6-methyl-benzoyl)-N-[4-methyl-3-(trifluoromethyl)phenyl]piperidine-3-carboxamide]: the solubility was greater than 5000 µg/mL.

`Cc1cccc(F)c1C(=O)N1CCC[C@H](C(=O)Nc2ccc(COC(=O)[C@H](C)N)c(C(F)(F)F)c2)[C@@H]1c1ccc(NC2CCCC2)cc1` [Example 18, [4-[[(2R,3S)-2-[4-(cyclopentylamino)phenyl]-1-(2-fluoro-6-methyl-benzoyl)piperidine-3-carbonyl]amino]-2-(trifluoromethyl)phenyl]methyl (2S)-2-aminopropanoate]: the solubility was greater than 5000 µg/mL.

Consider `Cc1cccc(F)c1C(=O)N1CCC[C@H](C(=O)Nc2ccc(COC(=O)[C@@H](NC(=O)CN)C(C)C)c(C(F)(F)F)c2)[C@@H]1c1ccc(NC2CCCC2)cc1` [Example 15, [4-[[(2R,3S)-2-[4-(cyclopentylamino)phenyl]-1-(2-fluoro-6-methyl-benzoyl)piperidine-3-carbonyl]amino]-2-(trifluoromethyl)phenyl]methyl (2S)-2-[(2-aminoacetyl)amino]-3-methyl-butanoate], for which the solubility was 5000 µg/mL (≈ 6.63 mM).

Take `Cc1cccc(F)c1C(=O)N1CCC[C@H](C(=O)Nc2ccc(COC(=O)C(N)C(C)C)c(C(F)(F)F)c2)[C@@H]1c1ccc(NC2CCCC2)cc1` (stereo in doubt) [Example 17, [4-[[(2R,3S)-2-[4-(cyclopentylamino)phenyl]-1-(2-fluoro-6-methyl-benzoyl)piperidine-3-carbonyl]amino]-2-(trifluoromethyl)phenyl]methyl (2R)-2-amino-3-methyl-butanoate]: the solubility is 4000 µg/mL (≈ 5.74 mM).

As to `Cc1ccc(NC(=O)[C@H]2CCCN(C(=O)c3c(C)cccc3F)[C@H]2c2ccc(N(C(=O)CN(C)C)C3CCCC3)cc2)cc1C(F)(F)F` [Example 1, (2R,3S)-2-[4-[cyclopentyl-[2-(dimethylamino)acetyl]amino]phenyl]-1-(2-fluoro-6-methyl-benzoyl)-N-[4-methyl-3-(trifluoromethyl)phenyl]piperidine-3-carboxamide], the solubility was greater than 10000 µg/mL.

As for `Cc1ccc(NC(=O)[C@H]2CCCN(C(=O)c3c(C)cccc3F)[C@H]2c2ccc(N(C(=O)OCOC(=O)[C@@H](N)C(C)C)C3CCCC3)cc2)cc1C(F)(F)F` [Example 7, [cyclopentyl-[4-[(2R,3S)-1-(2-fluoro-6-methyl-benzoyl)-3-[[4-methyl-3-(trifluoromethyl)phenyl]carbamoyl]-2-piperidyl]phenyl]carbamoyl]oxymethyl (2S)-2-amino-3-methyl-butanoate], the solubility was in the range of 1000 to 2000 µg/mL (≈ 1.32 to 2.65 mM).

`Cc1cccc(F)c1C(=O)N1CCC[C@H](C(=O)Nc2ccc(COC(=O)c3cccc(CN4CCN(C)CC4)c3)c(C(F)(F)F)c2)[C@@H]1c1ccc(NC2CCCC2)cc1` [Example 23, [4-[[(2R,3S)-2-[4-(cyclopentylamino)phenyl]-1-(2-fluoro-6-methyl-benzoyl)piperidine-3-carbonyl]amino]-2-(trifluoromethyl)phenyl]methyl 3-[(4-methylpiperazin-1-yl)methyl]benzoate]: the solubility was greater than 1000 µg/mL.

On to `Cc1ccc(N(COP(=O)(O)O)C(=O)[C@H]2CCCN(C(=O)c3c(C)cccc3F)[C@H]2c2ccc(NC3CCCC3)cc2)cc1C(F)(F)F` [Example 11, [N-[(2R,3S)-2-[4-(cyclopentylamino)phenyl]-1-(2-fluoro-6-methyl-benzoyl)piperidine-3-carbonyl]-4-methyl-3-(trifluoromethyl)anilino]methyl dihydrogen phosphate], for which the solubility is greater than 5000 µg/mL.

Take `Cc1cccc(F)c1C(=O)N1CCC[C@H](C(=O)Nc2ccc(COC(=O)CNC(=O)CN)c(C(F)(F)F)c2)[C@@H]1c1ccc(NC2CCCC2)cc1` [Example 13]: the solubility was 10000 µg/mL (≈ 14 mM).

For the compound `Cc1ccc(NC(=O)[C@H]2CCCN(C(=O)c3c(C)cccc3F)[C@H]2c2ccc(N(C3CCCC3)P(=O)(O)OC(=O)C(C)C)cc2)cc1C(F)(F)F` [Example 4, N-cyclopentyl-N-[4-[(2R,3S)-1-(2-fluoro-6-methyl-benzoyl)-3-[[4-methyl-3 (trifluoromethyl)phenyl]carbamoyl]-2-piperidyl]phenyl]-(2-methylpropanoyloxy)phosphonamidic acid], the solubility came out at 1000 µg/mL (≈ 1.37 mM).

For the compound `Cc1ccc(NC(=O)[C@H]2CCCN(C(=O)c3c(C)cccc3F)[C@H]2c2ccc(N(C(=O)OCc3ccc(OP(=O)(O)O)cc3)C3CCCC3)cc2)cc1C(F)(F)F` [Example 8, (4-phosphonooxyphenyl)methyl N-cyclopentyl-N-[4-[(2R,3S)-1-(2-fluoro-6-methyl-benzoyl)-3-[[4-methyl-3-(trifluoromethyl)phenyl]carbamoyl]-2-piperidyl]phenyl]carbamate], the solubility amounted to 1000 µg/mL (≈ 1.23 mM).

As for `Cc1ccc(NC(=O)[C@H]2CCCN(C(=O)c3c(C)cccc3F)[C@H]2c2ccc(N(C(=O)OCOC(=O)/C=C/C(=O)O)C3CCCC3)cc2)cc1C(F)(F)F` [Example 10, (E)-4-[[cyclopentyl-[4-[(2R,3S)-1-(2-fluoro-6-methyl-benzoyl)-3-[[4-methyl-3-(trifluoromethyl)phenyl]carbamoyl]-2-piperidyl]phenyl]carbamoyl]oxymethoxy]-4-oxo-but-2-enoic acid], the solubility amounted to 1000 µg/mL (≈ 1.33 mM).

For `Cc1ccc(NC(=O)[C@H]2CCCN(C(=O)c3c(C)cccc3F)[C@H]2c2ccc(N(C3CCCC3)P(=O)(O)N[C@@H](Cc3c[nH]cn3)C(=O)O)cc2)cc1C(F)(F)F` [Example 3, 2-[[[N-cyclopentyl-4-[(2R,3S)-1-(2-fluoro-6-methyl-benzoyl)-3-[[4-methyl-3-(trifluoromethyl)phenyl]carbamoyl]-2-piperidyl]anilino]-hydroxy-phosphoryl]amino]-3-(1H-imidazol-4-yl)propanoic acid], the solubility came to 5000 µg/mL (≈ 6.26 mM).

As to `Cc1cccc(F)c1C(=O)N1CCC[C@H](C(=O)Nc2ccc(COC(=O)[C@@H](NC(=O)[C@@H](N)C(C)C)C(C)C)c(C(F)(F)F)c2)[C@@H]1c1ccc(NC2CCCC2)cc1` [Example 16, [4-[[(2R,3S)-2-[4-(cyclopentylamino)phenyl]-1-(2-fluoro-6-methyl-benzoyl)piperidine-3-carbonyl]amino]-2-(trifluoromethyl)phenyl]methyl (2S)-2-[[(2S)-2-amino-3-methyl-butanoyl]amino]-3-methyl-butanoate], the solubility is 5000 µg/mL (≈ 6.28 mM).

As to `Cc1cccc(F)c1C(=O)N1CCC[C@H](C(=O)Nc2ccc(COC(=O)CNC(=O)[C@@H](N)C(C)C)c(C(F)(F)F)c2)[C@@H]1c1ccc(NC2CCCC2)cc1` [Example 14, [4-[[(2R,3S)-2-[4-(cyclopentylamino)phenyl]-1-(2-fluoro-6-methyl-benzoyl)piperidine-3-carbonyl]amino]-2-(trifluoromethyl)phenyl]methyl 2-[[(2S)-2-amino-3-methyl-butanoyl]amino]acetate], the solubility is 5000 µg/mL (≈ 6.63 mM).

`Cc1cccc(F)c1C(=O)N1CCC[C@H](C(=O)Nc2ccc(COCOP(=O)(O)O)c(C(F)(F)F)c2)[C@@H]1c1ccc(NC2CCCC2)cc1` [Example 22, [4-[[(2R,3S)-2-[4-(cyclopentylamino)phenyl]-1-(2-fluoro-6-methyl-benzoyl)piperidine-3-carbonyl]amino]-2-(trifluoromethyl)phenyl]methoxymethyl dihydrogen phosphate]: the solubility was determined as 15000 µg/mL.

In the case of `Cc1cccc(F)c1C(=O)N1CCC[C@H](C(=O)Nc2ccc(COC(=O)CN)c(C(F)(F)F)c2)[C@@H]1c1ccc(NC2CCCC2)cc1` [Example 20, [4-[[(2R,3S)-2-[4-(cyclopentylamino)phenyl]-1-(2-fluoro-6-methyl-benzoyl)piperidine-3-carbonyl]amino]-2-(trifluoromethyl)phenyl]methyl 2-aminoacetate], the solubility is greater than 10000 µg/mL.

Regarding `Cc1ccc(NC(=O)[C@H]2CCCN(C(=O)c3c(C)cccc3F)[C@H]2c2ccc(N(C(=O)CNC(=O)[C@@H](N)CCCN)C3CCCC3)cc2)cc1C(F)(F)F` [Example 6, (2R,3S)-2-[4-[cyclopentyl-[2-[[(2S)-2,5-diaminopentanoyl]amino]acetyl]amino]phenyl]-1-(2-fluoro-6-methyl-benzoyl)-N-[4-methyl-3-(trifluoromethyl)phenyl]piperidine-3-carboxamide dihydrochloride], the solubility was 5000 µg/mL.

The nature of a further data set: physchem. The data set is classed as physicochemical. The conditions noted are these: 25 °C, pH 7, aqueous buffer, thermodynamic from solid. The method, then:
Saturated solutions of compound in pH 7 buffers were left overnight at room temperature (25° C.) before they were centrifuged. The supernatants were taken out and quantified. Solubility: 0.053 μg/mL.
`Cc1ccc(NC(=O)[C@H]2CCCN(C(=O)c3c(C)cccc3F)[C@H]2c2ccc(NC3CCCC3)cc2)cc1C(F)(F)F` had a solubility of 0.053 µg/mL (≈ 9.11e-05 mM).

For the origin of these results see patent publication US11254695B2, “Soluble C5aR antagonists” (CHEMOCENTRYX, INC., priority 2016, dated 2022).
